Results on six molecules are retold here after paper PMC7834886 (Life Sciences, 2020).

In series [1] the test system is ACE2^hi cells (ACE2 high-expressing HEK293T cells). Kind of series: Cytotoxicity assay. Type of series: cell-based. The note with it: for cytotoxicity to cells: at 20 μM; for effect on activity (survival) of ACE2^hi cells: at concentrations below 100 μM.
A further series concerns the target ACE2 (Homo sapiens, UniProt Q9BYF1). Format: binding. The note with it: mobile phase 10 mM Na2HPO4 / phosphate-buffer saline pH 7.4; flow rate 0.2 mL/min; 37 °C; UV 254 nm.
The conditions of series [2]: preclinical and clinical studies; cited from earlier work.

Sequence of ACE2 (Q9BYF1 18-805): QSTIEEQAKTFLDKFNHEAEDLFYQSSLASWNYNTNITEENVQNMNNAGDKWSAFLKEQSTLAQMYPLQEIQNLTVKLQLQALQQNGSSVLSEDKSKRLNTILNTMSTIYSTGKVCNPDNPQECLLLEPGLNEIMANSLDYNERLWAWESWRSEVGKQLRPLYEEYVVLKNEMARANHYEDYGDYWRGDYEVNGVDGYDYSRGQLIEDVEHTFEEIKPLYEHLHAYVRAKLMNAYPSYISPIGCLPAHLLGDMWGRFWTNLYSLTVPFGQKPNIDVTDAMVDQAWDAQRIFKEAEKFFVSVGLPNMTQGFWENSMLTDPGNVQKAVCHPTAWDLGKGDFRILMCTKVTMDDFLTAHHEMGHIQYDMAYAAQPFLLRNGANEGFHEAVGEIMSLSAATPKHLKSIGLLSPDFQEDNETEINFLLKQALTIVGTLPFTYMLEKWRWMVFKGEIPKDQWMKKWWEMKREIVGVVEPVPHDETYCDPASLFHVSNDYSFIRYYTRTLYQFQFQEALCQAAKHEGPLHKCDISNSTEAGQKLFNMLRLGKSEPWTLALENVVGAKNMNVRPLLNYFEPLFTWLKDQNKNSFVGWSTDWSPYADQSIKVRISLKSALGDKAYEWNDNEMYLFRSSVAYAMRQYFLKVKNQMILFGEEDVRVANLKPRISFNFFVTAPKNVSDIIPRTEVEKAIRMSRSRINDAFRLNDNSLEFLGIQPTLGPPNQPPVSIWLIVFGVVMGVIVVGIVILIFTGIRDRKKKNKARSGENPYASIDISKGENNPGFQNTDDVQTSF

Regarding `OCCOCCN1CCN(C2=Nc3ccccc3Sc3ccccc32)CC1` [Que, quetiapine], in series [1] (CCK-8, 24 h, at concentrations below 50 μM), the “difference in cell viability versus control group” value is “no significant difference”. For the same molecule, the cytotoxicity to cells entry in series [1] was “no cytotoxicity”.

On to `CCN(CC)CCNC(=O)c1cc(S(C)(=O)=O)ccc1OC` [Tia, tiapride], for which, in series [1] (CCK-8, 24 h), the “effect on activity (survival) of ACE2^hi cells” value is “no significant effect”. Moreover, the cytotoxicity to cells result in series [1] is on record as “no cytotoxicity”. Further, the “retention time (tR) on ACE2-CMC column” value at ACE2 is 7.789 min.

Take `CN(C)CCCN1c2ccccc2Sc2ccc(Cl)cc21` [Chl, Chlorpromazine]: the “concentration in the lungs relative to plasma” value in series [2] is listed as 20–200 times higher than in plasma. In addition, in series [1], the cytotoxicity to cells entry is recorded as “no cytotoxicity”.

For the molecule `O=C1CCc2ccc(OCCCCN3CCN(c4cccc(Cl)c4Cl)CC3)cc2N1` [Ari, aripiprazole], in series [1] (CCK-8, 24 h), the “effect on activity (survival) of ACE2^hi cells” value is “no significant effect”. The cytotoxicity to cells result in series [1] is given as “no cytotoxicity”.

For the molecule `CSc1ccc2c(c1)N(CCC1CCCCN1C)c1ccccc1S2` (stereo not drawn) [Thi, thioridazine], the cytotoxicity to cells result in series [1] is listed as “no cytotoxicity”. In addition, the “retention time (tR) on ACE2-CMC column” value at ACE2 turned out to be 51.604 min.

For `CN1CCN(CCCN2c3ccccc3Sc3ccc(C(F)(F)F)cc32)CC1` [Tri, Trifluoperazine], the cytotoxicity to cells result in series [1] is given as “no cytotoxicity”.
